This passage reports EC (150% of control) and melting point results from US9284321B2, “Piperazino[1,2-a]indol-1-ones and [1,4]diazepino[1,2-a]indol-1-one” (Hoffmann-La Roche Inc., priority 2012, dated 2016).

As a reminder, the melting point is the temperature of the solid-liquid transition.

Data set [1] concerns human embryonic stem cell derived neural stem cells (NSCs). The experiment in a line: Neural Stem Cell Proliferation Assay (neurogenesis assay, ATP levels by CellTiterGlo). It counts as cell-based. As to conditions: 96 h, compound concentration at which 150% activity of control (100%) is reached, NSC proliferation by ATP level after 4 days incubation, dose response 8 μM to 8 nM. The method in brief: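 Human ESC-derived NSCs (dual SMAD inhibition) seeded 4 h before compounds, 11-point 2-fold series 8 μM–8 nM; 4 days at 37 °C, 5% CO2. ATP by CellTiterGlo luminescence as cell-number proxy, response as % of media control (0.25% DMSO); EC150 = concentration giving 150% of control.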
On the technique in general: ATP-based viability assays read luminescence as a measure of living cells.

Consider `Cc1cc(-c2cc(C#N)cc3cc4n(c23)CCCNC4=O)ccc1F` [Example 235, 7-(4-Fluoro-3-methylphenyl)-1-oxo-2,3,4,5-tetrahydro-[1,4]diazepino[1,2-a]indole-9-carbonitrile], for which the melting point is 223.5 °C. Besides, the EC (150% of control) in data set [1] came out at 0.77 µM.
`N#Cc1ccc(-c2cc(C#N)cc3cc4n(c23)CCCNC4=O)cc1` [Example 237, 7-(4-Cyanophenyl)-1-oxo-2,3,4,5-tetrahydro-[1,4]diazepino[1,2-a]indole-9-carbonitrile]: the melting point is 257 °C. Besides, the EC (150% of control) in data set [1] came out at 0.22 µM.
Consider `N#Cc1cc(-c2cc(F)cc(F)c2)c2c(c1)cc1n2CCNC1=O` [Example 222, 6-(3,5-Difluorophenyl)-1-oxo-3,4-dihydro-2H-pyrazino[1,2-a]indole-8-carbonitrile], for which the melting point was determined as 264 °C. In addition, the EC (150% of control) in data set [1] is 0.22 µM.
